Measured values: patent publication US20220249399A1, “COMPOSITION COMPRISING AN ANTI-OXIDANT TO PRESERVE CORNEAL TISSUE” (University of lowa Research Foundation, priority 2019, published 2022)

Key:
[1] = tested on: human donor corneal endothelial cells; assay: Apoptosis and necrosis assays on donor endothelial cell-Descemet membrane tissue after storage; type: cell-based; conditions: for corneal endothelial cell necrosis, change vs control: vs diluent control
Experimental: Human corneal tissue pairs were obtained by Iowa Lions Eye Bank (ILEB) from nondiabetic donors 60-75 years old and stored in Optisol GS (Bausch+Lomb, Irvine, Calif.) at 4° C. following procurement in accordance with Eye Bank Association of America and ILEB policies and procedures. […] Descemet membrane and endothelial cell punches were collected and mounted onto the bottom of a Seahorse assay plate (cells facing upward). Mitochondrial respiration was assayed by measuring oxygen consumption using the Seahorse XFe24 Extracellular Flux Analyzer (Agilent Technologies, Santa Clara, Calif.) over 120 minutes (9-minute intervals). Punches were labeled with a nuclear counterstain (DAPI) and remaining tissues were mounted onto slides and labeled with 488A-Annexin V, Ethidium Homodimer III, and Hoechst 33342 (Apoptotic, Necrotic, and Healthy Cells Quantification Kit; Biotium, Fremont, Calif.) to assay cell health. Nuclei were counted in each punch to normalize respirometry data. Immunohistochemistry densitometry was measured using ImageJ software.
(§1) Human corneal tissue pairs were obtained by Iowa Lions Eye Bank (ILEB) from nondiabetic donors 60-75 years old and stored in Optisol GS (Bausch+Lomb, Irvine, Calif.) at 4° C. following procurement in accordance with Eye Bank Association of America and ILEB policies and procedures. For 5 days prior to testing, but within 9 days of procurement, one stored tissue from a corneal pair was treated with 10 μM CoQ10, while the mate tissue was treated with diluent only as a control. Descemet membrane and endothelial cell punches were collected and mounted onto the bottom of a Seahorse assay plate (cells facing upward). Mitochondrial respiration was assayed by measuring oxygen consumption using the Seahorse XFe24 Extracellular Flux Analyzer (Agilent Technologies, Santa Clara, Calif.) over 120 minutes (9-minute intervals). Punches were labeled with a nuclear counterstain (DAPI) and remaining tissues were mounted onto slides and labeled with 488A-Annexin V, Ethidium Homodimer III, and Hoechst 33342 (Apoptotic, Necrotic, and Healthy Cells Quantification Kit; Biotium, Fremont, Calif.) to assay cell health. Nuclei were counted in each punch to normalize respirometry data. Immunohistochemistry densitometry was measured using ImageJ software.
as §1, with “100” for “10”, “palmitate-BSA,” for “CoQ10,”, “BSA” for “diluent”
In brief, excess EDM tissues from surrounding the punches used for metabolic assays were incubated with 488A-Annexin V, Ethidium Homodimer III, and Hoechst 33342 (Apoptotic, Necrotic, and Healthy Cells Quantification Kit; Biotium, Fremont, Calif.) to detect the apoptotic, necrotic, and entire cell populations, respectively. […]

[2] = tested on: A549 human lung cancer cells; assay: ROS assay, dihydroethidium (DHE) fluorescence by flow cytometry, with or without antimycin A; type: cell-based; conditions: for ROS levels (DHE fluorescence) with antimycin A (AM): AM as ROS inducer, p<0.05
Experimental: A549 human lung cancer cells were seeded in 6-well plates at 200,000 cells/well for 40 hours, then the medium was removed, and treatments were added. Ubiquinol (coQ10) was dispersed in RPMI medium at three different concentrations (100, 50, and 10 μM) and added to wells (n=3 each), then the volume of each well was completed to 4 ml with medium. Ubiquinol-γ-cyclodextrin (1:10 molar ratio) complex dispersed in RPMI at three different concentrations (equivalent to 100, 50, and 10 μM of ubiquinol) and added to wells (n=3/each) and the volume of the each well was completed to 4 ml with medium._γ-cyclodextrin was added in amounts equivalent to those associated with 100, 50, and 10 μM of the complex to each well (n=3/each) and the volume of the each well was completed to 4 ml with medium._Six wells were left untreated._After 24 h, media were removed, and wells were washed with 5 mM sodium pyruvate in PBS, trypsinized, then collected in 15 ml tubes by centrifugation. Cells were washed with 5 mM sodium pyruvate in PBS, then re-suspended in 1 ml of the same solution._The reagents were added as described in FIG. 14, then incubated at 40 min._Cells were re-suspended and transferred to round-bottom tubes, and analyzed by flow Cytometry.

[3] = 10 μM ubiquinol vs diluent-treated mate cornea, 5 days, n = 9
[4] = 10 μM ubiquinol, 5 days in Optisol-GS, n = 9 matched tissues
[5] = palmitate-BSA treated tissues (100 μM), 5 days, n = 8 matched tissues

ubiquinol
protection against apoptosis and necrosis ([1]; 1 μM coQ10, tissues in storage): protected not only against apoptosis, but also against necrosis
apoptosis reduced in treated cells ([1]; 10 μM CoQ10, 5 days in Optisol GS, vs diluent control (p=0.09)): 29%
corneal endothelial cell necrosis, change vs control ([1]; 10 μM CoQ10, 5 days in Optisol GS, listed as CoQ10): not changed
corneal endothelial cell necrosis, change vs control ([1]; 10 μM CoQ10, 5 days in Optisol GS, listed as co-Q10): did not change
corneal endothelial cell necrosis, change vs control ([1]; 10 μM CoQ10, 5 days in Optisol GS, listed as coenzyme Q10): did not change
% Apoptotic, Mean Ratio: Ubiquinol/Control (95% CI) [1, 3]: Ratio: 0.90 (0.63, 1.29)
% Necrotic, Mean Ratio: Ubiquinol/Control (95% CI) [1, 3]: Ratio: 1.02 (0.91, 1.15)
% Apoptotic, Mean (SD) [1, 4]: 0.0040 (0.0047) %
% Necrotic, Mean (SD) [1, 4]: 0.0263 (0.0070) %
apoptosis, change vs controls ([1]; Example 13: 10 μM ubiquinol, 5 days in Optisol-GS (p=0.517)): no significant change
cell necrosis, change vs controls ([1]; Example 13: 10 μM ubiquinol, 5 days in Optisol-GS (p=0.694)): no significant change
% Apoptotic, Mean (SD) [1, 5]: 0.00053 (0.00062) %
% Necrotic, Mean (SD) [1, 5]: 0.0628 (0.0532) %
CEC cell death in storage ([1]; ubiquinol supplemented corneal storage medium vs non-supplemented): decreased
ROS inhibition with an increase in concentration ([2]; 10, 50, 100 μM ubiquinol or equivalent): does not result in any significant change in ROS inhibition
ROS levels (DHE fluorescence) with antimycin A (AM) ([2]; 24 h treatment, listed as Free ubiquinol): failed to decrease ROS levels after AM treatment
ROS levels (DHE fluorescence) with antimycin A (AM) ([2]; 24 h treatment, listed as free ubiquinol): unable to inhibit ROS
ROS levels (DHE fluorescence) without ROS induction by AM ([2]; 24 h treatment, no AM): decrease the ROS levels in the cells below the normal levels
